Data from patent US4764533A, “Erythro-1,2-1-pentanones” (Klinge Pharma GmbH, priority 1981, dated 1988).

Experiments:
[1] = test system: uterus; experiment: Antiuterotropic effect (modified Dorfman test, uterus weight); type: in vivo, rat (Spraque-Dawley, sexually mature female); details: 3 mg/kg/day, esophageal tube, 21 days, six times per week; 10 animals
Method: The measurement of the antiuterotropic action was effected following a three-week treatment with the active ingredient of sexually mature, female rats. […] The antiuterotropic effect was determined by a modified Dorfman test (R. I. Dorfman, "Methods in Hormone Research II" p. 707, Academic Press, New York-London, 1962), on sexually mature female Spraque-Dawley rats. The test compounds were taken up in a 0.25% aqueous agar suspension and administered by esophageal tube over a period of 21 days, six times per week. Following the completion of the experiment, the uterus weight of animals treated with the active ingredient was related to the uterus weight of the control animals, which received only an empty agar suspension.

[2] = target: T1, estradiol receptor (Oryctolagus cuniculus, UniProt G1SML6); experiment: Bonding affinity to the estradiol receptor (displacement of (^3 H) estradiol, rabbit uterus cytosol); type: binding, rabbit (New Zealand); details: uterus cytosol of female prepubertal rabbits; 18 hours at 40° C.; 2.5×10^-9 M (^3 H) estradiol; read-out: ED50 (concentration of substance displacing 50% (^3 H) estradiol from the estradiol receptor)
T1 construct: The uterus cytosal of female, prepubertal, white rabbits (New Zealand); from tissue; host or cells: uterus cytosol of female prepubertal New Zealand white rabbits
T1 sequence (G1SML6 1-598): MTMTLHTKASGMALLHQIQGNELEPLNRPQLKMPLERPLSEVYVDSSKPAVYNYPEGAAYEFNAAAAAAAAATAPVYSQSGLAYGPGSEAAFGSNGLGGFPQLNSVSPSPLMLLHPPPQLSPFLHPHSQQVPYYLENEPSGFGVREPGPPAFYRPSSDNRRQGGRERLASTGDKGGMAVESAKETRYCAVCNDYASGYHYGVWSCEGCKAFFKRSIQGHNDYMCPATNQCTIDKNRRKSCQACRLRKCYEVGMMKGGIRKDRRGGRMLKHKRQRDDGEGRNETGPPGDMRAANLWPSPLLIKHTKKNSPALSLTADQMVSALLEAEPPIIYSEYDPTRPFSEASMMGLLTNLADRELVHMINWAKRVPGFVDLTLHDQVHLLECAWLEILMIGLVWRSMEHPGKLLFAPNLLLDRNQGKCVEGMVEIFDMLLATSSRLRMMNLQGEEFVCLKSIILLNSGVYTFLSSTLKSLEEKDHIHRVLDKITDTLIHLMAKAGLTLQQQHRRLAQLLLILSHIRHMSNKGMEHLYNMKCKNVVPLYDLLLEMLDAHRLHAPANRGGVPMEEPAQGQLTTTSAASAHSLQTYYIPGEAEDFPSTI
Excerpt: The determination of the binding affinity to the estradiol receptor was effected by means of the rabbit uterus cytosol.
The measurement of the bonding affinity to the estradiol receptor was affected by the method of N. Devleeschouwer, G. Leclercq, A. Danguy and J. C.

[3] = test system: mammatumors induced by 7,12-dimethylbenz(a)anthracene; experiment: Mammatumor inhibiting effect (7,12-dimethylbenz(a)anthracene-induced mammatumors); type: in vivo, rat (female Spraque-Dawley, Hannover strain); details: 3 mg/kg/day, esophageal tube, 28 days, six times per week; 10 animals; control animals valued at 100%
Method: The tumor inhibiting action was measured following a four-week treatment with the active ingredient on female rats, with mammatumors induced previously with 7,12-dimethylbenz(a)anthracene.
The tumor inhibiting effect was determined on the model of mammatumors induced by means of 7,12-dimethylbenz(a)anthracene of female Spraque-Dawley rats (Hannover strain), by the method of M. J. Golder (Europ. J. Cancer 11, 571 (1975)) and D. P. Griswold et al. (Cancer Research 26, 2169 (1966)).
The test substance were taken up in a 0.25% agar solution and administered by esophageal tube over a period of 28 days, six times per week. Twice weekly and on the 28th day of the experiment, the number of animals was ascertained and the tumor surface (mm^2 /animal) of the therapy and control animals measured. At the completion of the experiment, the percentage increase of the average tumor surface of the treated animals was determined, compared with the control animals, which were valued at 100%.

Structure (SMILES)	Weight of uterus compared to control animals [1] [%]	IC50 [2] [nM]	Relative increase of average tumor surface [3] [%]
CC[C@H](c1ccccc1)[C@@H](C(=O)c1ccc(OCCN2CCCCC2)cc1)c1ccccc1 (relative stereo) [Compound 4, erythro-2,3-diphenyl-1-(4'-(2-piperidin-1-yl-ethoxy)-phenyl)-1-pentanone]	-28	2800	–
CC[C@H](c1ccccc1)[C@@H](C(=O)c1ccc(OCCN2CCCCC2)cc1)c1ccc(OC)cc1 (relative stereo) [Compound 8, erythro-2-(4'-methoxyphenyl)-3-phenyl-1-(4'-(2-piperidin-1-yl-ethoxy)-phenyl)-1-pentanone]	–	1.2	–
CC[C@H](c1ccccc1)[C@@H](C(=O)c1ccc(OCCN(C)C)cc1)c1ccc(O)cc1 (relative stereo) [Compound 9, erythro-1-(4'-(2-dimethylaminoethoxy)-phenyl)-2-(4'-hydroxyphenyl)-3-phenyl-1-pentanone]	-54	5.4	30
CC[C@H](c1ccccc1)[C@@H](C(=O)c1ccc(OCCN(C)C)cc1)c1ccc(OC)cc1 (relative stereo) [Compound 5, erythro-1-(4'-(2-dimethylaminoethoxy)-phenyl)-2-(4'-methoxyphenyl)-3-phenyl-1-pentanone]	-47	4500	–
CC[C@H](c1ccccc1)[C@@H](C(=O)c1ccc(OCCN(CC)CC)cc1)c1ccccc1 (relative stereo) [Compound 2, erythro-1-(4'-(2-diethylaminoethoxy)-phenyl)-2,3-diphenyl-1-pentanone]	-54	4000	–
CC[C@H](c1ccccc1)[C@@H](C(=O)c1ccc(OCCN(C)C)cc1)c1ccccc1 (relative stereo) [Compound 1, erythro-1-(4'-(2-dimethylaminoethoxy)-phenyl)-2,3-diphenyl-1-pentanone]	–	6000	53
CC[C@H](c1ccccc1)[C@@H](C(=O)c1ccc(OCCN2CCCC2)cc1)c1ccc(OC)cc1 (relative stereo) [Compound 7, erythro-2-(4'-methoxyphenyl)-3-phenyl-1-(4'-(2-pyrrolidin-1-yl-ethoxy)-phenyl)-1-pentanone]	-43	1100	–
CC[C@H](c1ccccc1)[C@@H](C(=O)c1ccc(OCCN2CCCC2)cc1)c1ccccc1 (relative stereo) [Compound 3, erythro-2,3-diphenyl-1-(4'-(2-pyrrolidin-1-yl-ethoxy)-phenyl)-1-pentanone]	-36	6000	–
CC[C@H](c1ccccc1)[C@@H](C(=O)c1ccc(OCCN(CC)CC)cc1)c1ccc(OC)cc1 (relative stereo) [Compound 6, erythro-1-(4'-(2-diethylaminoethoxy)-phenyl)-2-(4'-methoxyphenyl)-3-phenyl-1-pentanone]	–	500	–
CC[C@H](c1ccccc1)[C@@H](C(=O)c1ccc(OCCN2CCCC2)cc1)c1ccc(O)cc1 (relative stereo) [Compound 10, erythro-2-(4'-hydroxyphenyl)-3-phenyl-1-(4'-(2-pyrrolidin-1-yl-ethoxy)-phenyl)-1-pentanone]	–	80	–
